# Experimental data taken from ChEMBL document CHEMBL5120779, “Thiazolidinedione-Based Structure Modification of Celastrol Provides Thiazolidinedione-Conjugated Derivatives as Potent Agents against Non-Small-Cell Lung Cancer Cells through a Mitochondria-Mediated Apoptotic Pathway” (J Nat Prod, 2022).
# Activity calls are given as the source filed them. The calls are words filed in the database; no cut-off is given here.
# Columns and labels:
# A549 [1] = test: Cytotoxicity against human A549 cells assessed as inhibition of cell proliferation at 0.125 to 2 uM by MTT assay; assay type: functional, cell-based; details: dose 0.125-2 µM, time 24-72 hrs, TDE = time-dependent effect
# A549 [2] = test: Induction of apoptosis in human A549 cells assessed as early apoptotic cells at 0.125 uM incubated for 48 hrs by Annexin V-FITC/propidium iodide staining based flow cytometry (reference value: 0.11%); assay type: functional
# A549 [3] = test: Induction of apoptosis in human A549 cells assessed as necrotic cells at 0.125 uM incubated for 48 hrs by Annexin V-FITC/propidium iodide staining based flow cytometry (reference value: 3.36%); assay type: functional
# A549 [4] = test: Induction of apoptosis in human A549 cells assessed as late apoptotic cells at 0.125 uM incubated for 48 hrs by Annexin V-FITC/propidium iodide staining based flow cytometry (reference value: 0.82%); assay type: functional
# A549 [5] = test: Induction of apoptosis in human A549 cells assessed as decrease in Bcl-2 protein expression at 0.25 to 4 uM incubated for 48 hrs by western blot analysis; assay type: functional, cell-based; details: dose 0.25-4 µM
# A549 [6] = test: Induction of apoptosis in human A549 cells assessed as necrotic cells at 0.25 uM incubated for 48 hrs by Annexin V-FITC/propidium iodide staining based flow cytometry (reference value: 3.36%); assay type: functional
# [7] = Toxicity in BALB/c mouse xenografted with human A549 cells assessed as body weight loss at 2 to 8 mg/kg, iv administered every 2 days for 13 days; assay type: organism-based; details: in vivo, 312 h, dose 2-8 mg/kg, time 13 day
# A549 [8] = test: Induction of mitochondrial membrane potential depolarization in human A549 cells assessed as proportion of cells with depolarized mitochondria by measuring green fluorescent J-monomers at 0.5 uM incubated for 48 hrs by JC-1 staining based flow cytometry (reference value: 34.2%); assay type: functional
# A549 [9] = test: Induction of apoptosis in human A549 cells assessed as increase in cleaved caspase-8 expression at 0.25 to 4 uM incubated for 48 hrs by western blot analysis; assay type: functional, cell-based; details: dose 0.25-4 µM
# A549 [10] = test: Induction of apoptosis in human A549 cells assessed as viable cells at 0.125 uM incubated for 48 hrs by Annexin V-FITC/propidium iodide staining based flow cytometry (reference value: 95.7%); assay type: functional; details: read-out: Activity
# A549 [11] = test: Potency index, ratio of celastrol IC50 to test compound IC50 for cytotoxicity against human A549 cells by MTT assay; assay type: functional
# A549 [12] = test: Induction of apoptosis in human A549 cells assessed as late apoptotic cells at 0.25 uM incubated for 48 hrs by Annexin V-FITC/propidium iodide staining based flow cytometry (reference value: 0.82%); assay type: functional
# A549 [13] = test: Anti-tumor activity against human A549 cells xenografted in BALB/c mouse assessed as reduction in tumor volume at 2 to 8 mg/kg, iv administered every 2 days for 13 days; assay type: functional, organism-based; details: dose 2-8 mg/kg, time 13.0 day
# A549 [14] = test: Anti-tumor activity against human A549 cells xenografted in iv dosed BALB/c mouse assessed as reduction in tumor growth administered every 2 days for 13 days; assay type: functional, organism-based; details: dose 2-8 mg/kg, time 13.0 day, DDE = dose-dependent effect
# A549 [15] = test: Cytotoxicity against human A549 cells assessed as inhibition of cell proliferation measured after 24 to 72 hrs by MTT assay; assay type: functional, cell-based; details: dose 0.125-2 µM, time 24-72 hrs, DDE = dose-dependent effect
# A549 [16] = test: Induction of apoptosis in human A549 cells assessed as necrotic cells at 0.5 uM incubated for 48 hrs by Annexin V-FITC/propidium iodide staining based flow cytometry (reference value: 3.36%); assay type: functional
# A549 [17] = test: Induction of mitochondrial membrane potential depolarization in human A549 cells assessed as proportion of cells with depolarized mitochondria by measuring green fluorescent J-monomers at 0.125 uM incubated for 48 hrs by JC-1 staining based flow cytometry (reference value: 34.2%); assay type: functional
# A549 [18] = test: Anti-tumor activity against human A549 cells xenografted in BALB/c mouse assessed as reduction in tumor weight at 2 mg/kg, iv administered every 2 days for 13 days; assay type: functional; details: A549, 312 h, time 13 day
# [19] = Cytotoxicity against human MRC5 cells assessed as inhibition of cell growth measured after 96 hrs by MTT assay; assay type: toxicity, cell-based
# A549 [20] = test: Induction of mitochondrial membrane potential depolarization in human A549 cells assessed as proportion of cells with intact mitochondria by measuring red fluorescent J-aggregates at 0.25 uM incubated for 48 hrs by JC-1 staining based flow cytometry (reference value: 63.9%); assay type: functional
# [21] = Selectivity index, ratio of IC50 for human MRC5 cells to IC50 for human A549 cells; assay type: toxicity; details: MRC5 cells and A549 cells, read-out: Ratio IC50
# A549 [22] = test: Induction of apoptosis in human A549 cells assessed as late apoptotic cells at 0.5 uM incubated for 48 hrs by Annexin V-FITC/propidium iodide staining based flow cytometry (reference value: 0.82%); assay type: functional
# A549 [23] = test: Cytotoxicity against human A549 cells assessed as inhibition of cell proliferation at 0.1 uM pretreated for 2 hrs with necroptosis inhibitor, necrostatin-1 followed by incubation with compound and measured after 48 hrs by MTT assay; assay type: functional, cell-based
# A549 [24] = test: Induction of apoptosis in human A549 cells assessed as viable cells at 0.25 uM incubated for 48 hrs by Annexin V-FITC/propidium iodide staining based flow cytometry (reference value: 95.7%); assay type: functional; details: read-out: Activity
# A549 [25] = test: Induction of apoptosis in human A549 cells assessed as increase in Bax protein expression at 0.25 to 4 uM incubated for 48 hrs by western blot analysis; assay type: functional, cell-based; details: dose 0.25-4 µM
# A549 [26] = test: Induction of apoptosis in human A549 cells assessed as early apoptotic cells at 0.25 uM incubated for 48 hrs by Annexin V-FITC/propidium iodide staining based flow cytometry (reference value: 0.11%); assay type: functional
# A549 [27] = test: Induction of mitochondrial membrane potential depolarization in human A549 cells assessed as proportion of cells with intact mitochondria by measuring red fluorescent J-aggregates at 0.125 uM incubated for 48 hrs by JC-1 staining based flow cytometry (reference value: 63.9%); assay type: functional
# A549 [28] = test: Induction of apoptosis in human A549 cells assessed as increase in cleaved caspase-9 expression incubated for 48 hrs by western blot analysis; assay type: functional, cell-based; details: dose 0.25-4 µM, DDE = dose-dependent effect
# A549 [29] = test: Induction of mitochondrial membrane potential depolarization in human A549 cells assessed as proportion of cells with intact mitochondria by measuring red fluorescent J-aggregates at 0.5 uM incubated for 48 hrs by JC-1 staining based flow cytometry (reference value: 63.9%); assay type: functional
# [30] = Stability of the compound in DMEM culture medium at 100 ug/ml measured after 72 hrs by HPLC analysis; assay type: physicochemical; details: at 100 µg/mL
# A549 [31] = test: Induction of apoptosis in human A549 cells assessed as increase in cleaved caspase-3 expression incubated for 48 hrs by western blot analysis; assay type: functional, cell-based; details: dose 0.25-4 µM, DDE = dose-dependent effect
# A549 [32] = test: cells; details: Homo sapiens, A549, 96 h
# Description: Cytotoxicity against human A549 cells assessed as inhibition of cell growth measured after 96 hrs by MTT assay
# A549 [33] = test: Anti-tumor activity against human A549 cells xenografted in BALB/c mouse assessed as reduction in tumor weight at 8 mg/kg, iv administered every 2 days for 13 days; assay type: functional; details: A549, 312 h, time 13 day
# A549 [34] = test: Cytotoxicity against human A549 cells assessed as inhibition of cell proliferation at 0.1 uM pretreated for 2 hrs with autophagy inhibitor, 3-methyladenine followed by incubation with compound and measured after 48 hrs by MTT assay; assay type: functional, cell-based
# A549 [35] = test: Induction of apoptosis in human A549 cells assessed as increase in cleaved PARP expression incubated for 48 hrs by western blot analysis; assay type: functional, cell-based; details: dose 0.25-4 µM, DDE = dose-dependent effect
# A549 [36] = test: Anti-tumor activity against human A549 cells xenografted in BALB/c mouse assessed as reduction in tumor weight at 4 mg/kg, iv administered every 2 days for 13 days; assay type: functional; details: A549, 312 h, time 13 day
# A549 [37] = test: Induction of apoptosis in human A549 cells assessed as viable cells at 0.5 uM incubated for 48 hrs by Annexin V-FITC/propidium iodide staining based flow cytometry (reference value: 95.7%); assay type: functional; details: read-out: Activity
# A549 [38] = test: Induction of apoptosis in human A549 cells assessed as early apoptotic cells at 0.5 uM incubated for 48 hrs by Annexin V-FITC/propidium iodide staining based flow cytometry (reference value: 0.11%); assay type: functional
# A549 [39] = test: Induction of mitochondrial membrane potential depolarization in human A549 cells assessed as proportion of cells with depolarized mitochondria by measuring green fluorescent J-monomers at 0.25 uM incubated for 48 hrs by JC-1 staining based flow cytometry (reference value: 34.2%); assay type: functional
# A549 [40] = test: Induction of apoptosis in human A549 cells assessed as nuclear fragmentation and chromatin condensation incubated for 48 hrs by Hoechst 33342 staining based fluorescence microscopic analysis; assay type: functional, cell-based; details: dose 0.25-0.5 µM, DDE = dose-dependent effect
smiles,measurement,setting,value
CC1=C(O)C(=O)C=C2C1=CC=C1[C@@]2(C)CC[C@@]2(C)[C@@H]3C[C@](C)(C(=O)N4CCN(C(=O)CN5C(=O)S/C(=C\C6CC6)C5=O)CC4)CC[C@]3(C)CC[C@]12C,Activity,A549 [1],Tde
same,Activity,A549 [2],1.9%
same,Activity,A549 [3],4.59%
same,Activity,A549 [4],7.71%
same,Activity,A549 [5],Active
same,Activity,A549 [6],5.86%
same,Activity,[7],Non-Toxic
same,Activity,A549 [8],46.4%
same,Activity,A549 [9],Active
same,viability at 0.125 µM,A549 [10],85.8%
same,Ratio IC50,A549 [11],13.8
same,Activity,A549 [12],19.6%
same,Activity,A549 [13],Active
same,Activity,A549 [14],Dde
same,Activity,A549 [15],Dde
same,Activity,A549 [16],6.96%
same,Activity,A549 [17],38.2%
same,inhibition in vivo at 2 mg/kg,A549 [18],48.8%
same,IC50 at 96 h,[19],3020 nM
same,Activity,A549 [20],56%
same,selectivity ratio,[21],37.8
same,Activity,A549 [22],29.5%
same,Activity,A549 [23],Active
same,viability at 0.25 µM,A549 [24],71.8%
same,Activity,A549 [25],Active
same,Activity,A549 [26],2.68%
same,Activity,A549 [27],60.2%
same,Activity,A549 [28],Dde
same,Activity,A549 [29],51.7%
same,Stability,[30],Stable
same,Activity,A549 [31],Dde
same,IC50,A549 [32],80 nM
same,inhibition in vivo at 8 mg/kg,A549 [33],69.5%
same,Activity,A549 [34],Active
same,Activity,A549 [35],Dde
same,inhibition in vivo at 4 mg/kg,A549 [36],64.4%
same,viability at 0.5 µM,A549 [37],59.8%
same,Activity,A549 [38],3.73%
same,Activity,A549 [39],42.3%
same,Activity,A549 [40],Dde
